Data on three molecules can be found in ChEMBL document CHEMBL3232812, “In-vitro anti-proliferative and anti-oxidant activity of galangin, fisetin and quercetin: role of localization and intermolecular interaction in model membrane” (Eur J Med Chem, 2014).

In brackets after ≈: the same amount, converted by molar mass. Activity calls are given as the source filed them. The calls are words filed in the database; no cut-off is given here.

Series [1] is described as follows: Binding affinity DPPC multilamellar vesicles assessed as main transition temperature at 1:5 compound/lipid ratio after 2 hrs by differential scanning calorimetry method (reference value: 41.98 degC). Background: DSC measures the heat that a sample takes up or gives off during a temperature scan.
The nature of series [2]: Binding affinity to 0.5 mg/ml of DPPC multilamellar vesicles at 100 uM after 2 hrs by centrifugation method. In kind it is physicochemical.
The nature of series [3]: Binding affinity DPPC multilamellar vesicles assessed as chemical shift at 1:5 compound/lipid ratio at 333 K by nuclear magnetic resonance analysis.
Series [4] has as its system Radical scavenging activity. Description: Antioxidant activity assessed as DPPH radical scavenging activity after 30 mins. In kind it is functional. A general note: Loss of DPPH colour is used to gauge radical scavenging.
Series [5] in a line: Binding affinity DPPC multilamellar vesicles assessed as chemical shift at 1:5 compound/lipid ratio at 323 K by nuclear magnetic resonance analysis.
The nature of series [6]: Binding affinity DPPC multilamellar vesicles assessed as pre-transition temperature at 1:10 compound/lipid ratio after 2 hrs by differential scanning calorimetry method (reference value: 34.10 degC).
Series [7] can be described thus: Binding affinity DPPC multilamellar vesicles assessed as chemical shift at 1:5 compound/lipid ratio at 303 K by nuclear magnetic resonance analysis.
Series [8] in a line: Binding affinity DPPC multilamellar vesicles after 2 hrs by centrifugation method. In kind it is physicochemical.
The next series relates to MCF7. Put plainly: Antiproliferative activity against human MCF7 cells assessed as cell growth at 10^-4 ug/ml after 48 hrs by SRB assay relative to control. In kind it is functional. The note with it: MCF7, 48 h, read-out: Activity. A general note: In SRB staining, fixed cells bind dye roughly in proportion to their protein.
The test system of a further series is K562. Put plainly: Antiproliferative activity against human K562 cells assessed as cell growth at 10^-4 ug/ml after 48 hrs by SRB assay relative to control. In kind it is functional. The following applies: K562, 48 h, read-out: Activity.
The nature of series [9]: Binding affinity DPPC multilamellar vesicles assessed as pre-transition temperature at 1:20 compound/lipid ratio after 2 hrs by differential scanning calorimetry method (reference value: 34.10 degC).
A short description of series [10]: Binding affinity DPPC multilamellar vesicles assessed as main transition temperature at 1:20 compound/lipid ratio after 2 hrs by differential scanning calorimetry method (reference value: 41.98 degC).
Series [11] can be described thus: Binding affinity DPPC multilamellar vesicles assessed as main transition temperature at 1:2 compound/lipid ratio after 2 hrs by differential scanning calorimetry method (reference value: 41.98 degC).
Another series relates to HepG2. Description: Antiproliferative activity against human HepG2 cells assessed as cell growth at 10^-4 ug/ml after 48 hrs by SRB assay relative to control. The following applies: HepG2, 48 h, read-out: Activity. In kind it is functional.
Series [12] in a line: Binding affinity DPPC multilamellar vesicles assessed as main transition temperature at 1:10 compound/lipid ratio after 2 hrs by differential scanning calorimetry method (reference value: 41.98 degC).

In general, IC50 refers to the concentration at which inhibition is half-maximal. Regarding `O=c1c(O)c(-c2ccc(O)c(O)c2)oc2cc(O)ccc12` [FISETIN], the T in [1] is 38.3 °C; in series [6] it was 26.2 °C; in series [9], 30.1 °C; in series [10] it was 40.8 °C; in [11], 39.2 °C; in series [12] it was 39.3 °C. In addition, the Activity in [2] amounted to 60%. In addition, the outcome in [3], in [5] and in [7] was Active. In addition, in series [4], the IC50 was determined as 9.26 µg/mL (≈ 32.4 µM). In series [8], this molecule gave a Kapp of 10438 M⁻¹. The results for the growth at 0.0001 µg/mL in the series with MCF7, in the series with K562 and in the series with HepG2 were 47.1%, 33.7% and 62.8%, respectively.

As for `O=c1c(O)c(-c2ccccc2)oc2cc(O)cc(O)c12` [GALANGIN], the T in series [1] was found to be 37.6 °C; in series [10], 38.7 °C; in series [11], 36.5 °C; in [12], 37.9 °C. Moreover, the Activity in series [2] is given as 60%. The outcome in series [3], in series [5] and in series [7] was Active. Also, in series [4], the half-maximal inhibitory concentration (IC50) was 11.4 µg/mL (≈ 42.2 µM). In addition, the Kapp in [8] is 16701 M⁻¹. For the same molecule, the growth at 0.0001 µg/mL came out at 68.2% in the series with MCF7, 74.8% in the series with K562 and 23.7% in the series on HepG2.

As to `O=c1c(O)c(-c2ccc(O)c(O)c2)oc2cc(O)cc(O)c12` [QUERCETIN], the T turned out to be 39.6 °C in series [1], 40.2 °C in series [10], 41 °C in series [11] and 39.7 °C in series [12]. The Activity in series [2] was determined as 60%. For the same molecule, the outcome in [3], in series [5] and in series [7] was Active. In series [4], the 50% inhibitory concentration (IC50) came to 9.14 µg/mL (≈ 30.2 µM). The same molecule had a Kapp in [8] of 10710 M⁻¹. Moreover, the growth at 0.0001 µg/mL in the series with MCF7 is 8.3%; in the series on K562, 12.4%; with HepG2, -5.4%.
